Source: US12466784B2, “Analogs of pterostilbene amino acid bearing carbonates for treating a non-alcoholic fatty liver disease and nonalcoholic steatohepatitis” (APICAL MOLECULAR BIOTECH CO., LTD., priority 2020, dated 2025)
Values joined by “and” are separate entries in the source; they are usually repeats but may differ in a detail not shown here. Identical values can stand only once.

How the values were obtained:
[1] = test system: hepatic steatosis induced by MCD diet; experiment: Histological examination (H&E stain) of liver of MCD diet mice; format: in vivo, Male C57BL/6 mice; conditions: for Avg: average of Scores of the group; for Ballooning / Inflammation / Steastosis / Fibrosis: score per animal; for Sum: sum of Scores of the 5 animals; for Scores: total score per animal
Procedure: (§1) Animals and experimental protocol: Male C57BL/6 mice, 4 weeks of age, were purchased from Laboratory Animal Center (Taiwan, China) were maintained under the procedures and guidelines provided by the Institutional Animal Care and Use Committee of the Health Research Institutes (Taiwan, China). They were maintained with free access to pellet food and water in stainless-steel cages at a temperature of 21±2° C. with a 12 h light/dark cycle.
(§2) Mice were randomly divided into five groups and treated as follows: (1) MCD diet+PG/TPSG (2) MCD diet+100 mg/kg all compounds. After 28 days, animals were sacrificed for the collection of blood for determination of plasma ALT and AST concentrations, and liver samples for H&E stain.
(§3) After 28 days, animals were sacrificed for the collection of blood for determination of plasma ALT and AST concentrations, and liver samples for H&E stain.

MCD diet NASH mice = experiment: Serum AST and ALT of compounds treated-NASH mice (MCD diet); format: in vivo, Male C57BL/6 mice
Procedure: as §1, §2, §3

[2] = In vitro stability in pH 1.2 solution (USP Gastric fluid without enzymes); conditions: 37° C.
Procedure: Sample collection: At 0, 0.17, 0.5, 1, 2, 4 and 6 h, 100 mL of aliquots were taken from the incubation mixture and placed into centrifuge tubes containing 100 μL of ice-cold acetonitrile and 1 μm internal standard where the reaction was terminated.

[3] = MCD diet mice, 75 mg/kg oral, hydrochloride, 75 mg/kg
[4] = MCD diet mice, 100 mg/kg oral (Table 3 study)
[5] = MCD diet mice, 100 mg/kg oral (Table 3 study), hydrochloride, 100 mg/kg
[6] = MCD diet mice, 150 mg/kg oral, hydrochloride, 150 mg/kg
[7] = MCD diet mice, 100 mg/kg oral (Table 4 study)
[8] = MCD diet mice, 100 mg/kg oral, PG/TPSG (1:1)

(E)-2-(2-amino-3-methylbutanamido)ethyl (4-(3,5-dimethoxystyryl)phenyl) carbonate hydrochloride [Compound 5c]
anti-NASH/NAFLD activities, in words ([1]; MCD diet mice): significant anti-NASH/NAFLD activities | effect on MCD diet-induced steatohepatitis (H&E staining), in words ([1]; MCD diet mice, 100 mg/kg oral): prevented MCD diet-induced steatohepatitis | effect on MCD diet-induced steatohepatitis (H-E staining), in words ([1]; MCD diet mice, 75, 100 and 150 mg/kg oral (FIG. 1, Table 3)): prevented MCD diet-induced steatohepatitis | Avg ([1]; 75 mg/kg oral): 6.2 | Avg ([1]; 100 mg/kg oral (Table 3 study)): 4.2 | Avg ([1]; 150 mg/kg oral): 3.2 | Ballooning ([1]; MCD diet mice, 75 mg/kg oral): 2 | Inflammation ([1]; MCD diet mice, 75 mg/kg oral): 1 | Steastosis ([1]; MCD diet mice, 75 mg/kg oral once daily, 5 times a week): 3 | Fibrosis [1, 3]: 1 and 0 (4×) | Fibrosis [1, 4]: 0 | Inflammation [1, 4]: 0 | Ballooning [1, 5]: 2 (3×) and 1 (2×) | Steastosis ([1]; MCD diet mice, 100 mg/kg oral once daily, 5 times a week (Table 3 study), hydrochloride, 100 mg/kg): 3 (3×) and 2 (2×) | Fibrosis ([1]; MCD diet mice, 150 mg/kg oral): 0 | Inflammation ([1]; MCD diet mice, 150 mg/kg oral): 0 | Steastosis ([1]; MCD diet mice, 150 mg/kg oral once daily, 5 times a week, hydrochloride, 150 mg/kg): 2 (3×) and 1 and 3 | Ballooning [1, 6]: 1 (4×) and 2 | Sum ([1]; 75 mg/kg oral): 31 | Sum ([1]; 100 mg/kg oral (Table 3 study)): 21 | Sum ([1]; 150 mg/kg oral): 16 | Scores [1, 3]: 7 and 6 (4×) | Scores [1, 5]: 5 (3×) and 3 (2×) | Scores [1, 6]: 3 (3×) and 2 and 5 | Serum ALT (U/L) (MCD diet NASH mice; MCD diet mice, 75 mg/kg oral): 164.40 U/L | Serum AST (U/L) (MCD diet NASH mice; MCD diet mice, 75 mg/kg oral): 275.00 U/L | effect on serum concentrations of AST and ALT, in words (MCD diet NASH mice; MCD diet mice, 100 mg/kg oral (Table 2)): significantly inhibited the serum concentrations of AST and ALT | Serum ALT (U/L) (MCD diet NASH mice; [7]): 92.60 U/L | Serum AST (U/L) (MCD diet NASH mice; [7]): 245.80 U/L | Serum ALT (U/L) (MCD diet NASH mice; [8]): 205.13 U/L | Serum AST (U/L) (MCD diet NASH mice; [8]): 274.00 U/L | Serum ALT (U/L) (MCD diet NASH mice; MCD diet mice, 150 mg/kg oral): 82.80 U/L | Serum AST (U/L) (MCD diet NASH mice; MCD diet mice, 150 mg/kg oral): 192.00 U/L | effect on serum concentrations of AST and ALT, in words (MCD diet NASH mice; MCD diet mice, 75, 100 and 150 mg/kg oral (Table 4)): significantly inhibited the serum concentrations of AST and ALT with dose-dependent manners | compound remaining in pH = 1.2 solution (%) ([2]; Time 0 h): 100.0% | compound remaining in pH = 1.2 solution (%) ([2]; Time 0.167 h): 88.5% | compound remaining in pH = 1.2 solution (%) ([2]; Time 0.5 h): 93.2% | compound remaining in pH = 1.2 solution (%) ([2]; Time 1 h): 96.0% | compound remaining in pH = 1.2 solution (%) ([2]; Time 2 h): 91.7% | compound remaining in pH = 1.2 solution (%) ([2]; Time 4 h): 97.4%
